Experimental data published in publication PMC6713143, “Design, synthesis and biological activity of selective hCAs inhibitors based on 2-(benzylsulfinyl)benzoic acid scaffold” (Journal of Enzyme Inhibition and Medicinal Chemistry, 2019).

Legend:
Format in all cases: biochemical
Conditions in all cases: mean from three determinations, errors 5–10%
hCA I = molecular target: T1, hCA I (Homo sapiens, UniProt P00915); assay: stopped-flow CO2 hydrase assay, hCA I
T1 construct: made in house
Procedure: (§1) An Applied Photophysics stopped-flow instrument has been used for assaying the CA catalysed CO2 hydration activity. […] The CO2 concentrations ranged from 1.7 to 17 mM for the determination of the kinetic parameters and inhibition constants. In particular, CO2 was bubbled in distilled deionised water for 30 min till saturation. A CO2 kit (Sigma, Milan, Italy) was used to measure the concentration in serially diluted solutions from the saturated one at the same temperature. […] The uncatalyzed rates were determined in the same manner and subtracted from the total observed rates. Stock solutions of inhibitor (1 µM) were prepared in distilled-deionised water and dilutions up to 0.1 nM were done thereafter with the assay buffer. […] The inhibition constants were obtained by non-linear least-squares methods using PRISM 3 and the Cheng-Prusoff equation[29], and represent the average from at least three different determinations. All recombinant CA isoforms were obtained in-house as previously reported[30]^,[31].

hCA II = molecular target: T2, hCA II (Homo sapiens, UniProt P00918); assay: stopped-flow CO2 hydrase assay, hCA II
T2 construct: made in house
Procedure: as §1

hCA IX = molecular target: T3, hCA IX (Homo sapiens, UniProt Q16790); assay: stopped-flow CO2 hydrase assay, hCA IX
T3 construct: made in house
Procedure: as §1

hCA XII = molecular target: T4, hCA XII (Homo sapiens, UniProt O43570); assay: stopped-flow CO2 hydrase assay, hCA XII
T4 construct: made in house
Procedure: as §1

T1 sequence (P00915 whole entry): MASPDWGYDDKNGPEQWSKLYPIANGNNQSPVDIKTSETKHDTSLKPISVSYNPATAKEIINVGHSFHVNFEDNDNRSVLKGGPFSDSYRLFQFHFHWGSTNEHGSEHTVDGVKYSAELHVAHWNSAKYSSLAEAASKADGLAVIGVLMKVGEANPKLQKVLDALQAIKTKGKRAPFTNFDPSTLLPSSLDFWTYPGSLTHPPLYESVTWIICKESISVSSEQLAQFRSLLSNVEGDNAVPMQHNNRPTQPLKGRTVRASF
T4 sequence (O43570 25-354): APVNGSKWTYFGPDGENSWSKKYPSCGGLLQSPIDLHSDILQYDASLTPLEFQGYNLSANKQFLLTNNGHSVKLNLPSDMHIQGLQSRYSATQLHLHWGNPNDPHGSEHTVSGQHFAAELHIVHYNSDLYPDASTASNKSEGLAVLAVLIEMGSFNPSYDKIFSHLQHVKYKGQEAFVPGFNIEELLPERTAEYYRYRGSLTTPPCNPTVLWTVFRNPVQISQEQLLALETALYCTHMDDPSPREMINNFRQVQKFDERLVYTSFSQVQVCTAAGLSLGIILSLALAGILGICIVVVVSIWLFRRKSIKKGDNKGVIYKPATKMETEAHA

Structure (SMILES) | Ki (hCA I) | Ki (hCA II) | Ki (hCA IX) | Ki (hCA XII) | Ki hCA XII (hCA XII) | Ki hCA IX (hCA IX) | Ki hCA I (hCA I) | Ki hCA II (hCA II)
O=C(O)c1ccccc1[S@+]([O-])Cc1ccccc1 [(R)-5] | > 100 µM | 0.21 µM | 1.4 µM |  |  |  |  | 
COC(=O)c1ccccc1[S@+]([O-])Cc1ccccc1 [(R)-8] | > 100 µM | 84.9 µM | 15.3 µM |  |  |  |  | 
COC(=O)c1ccccc1[S@+]([O-])Cc1ccc(Cl)cc1 [(R)-11] | > 100 µM | > 100 µM | 1.4 µM |  |  |  |  | 
NC(=O)c1ccccc1[S@+]([O-])Cc1ccccc1 [(R)-17] | > 100 µM | 52.2 µM | 2.2 µM |  |  |  |  | 
CNC(=O)c1ccccc1[S@+]([O-])Cc1ccccc1 [(R)-20] | > 100 µM | 52.2 µM | 22.8 µM |  |  |  |  | 
O=C(O)c1ccccc1[S@@+]([O-])Cc1ccccc1 [(S)-5] | > 100 µM | 0.093 µM | 1.2 µM |  |  |  |  | 
COC(=O)c1ccccc1[S@@+]([O-])Cc1ccccc1 [(S)-8] | > 100 µM | 65.7 µM | 20 µM |  |  |  |  | 
COC(=O)c1ccccc1[S@@+]([O-])Cc1ccc(Cl)cc1 [(S)-11] | > 100 µM | > 100 µM | 18.1 µM |  |  |  |  | 
NC(=O)c1ccccc1[S@@+]([O-])Cc1ccccc1 [(S)-17] | > 100 µM | 51.9 µM | 1.9 µM |  |  |  |  | 
CNC(=O)c1ccccc1[S@@+]([O-])Cc1ccccc1 [(S)-20] | > 100 µM | 38.9 µM | 24.6 µM |  |  |  |  | 
CC(=O)c1ccccc1SCc1ccccc1 [Compound 1] | > 100 µM | > 100 µM | 1.1 µM |  |  |  |  | 
CC(=O)c1ccccc1[S+]([O-])Cc1ccccc1 (centres unmarked) [Compound 2] | > 100 µM | 63.2 µM | 2 µM |  |  |  |  | 
CC(=O)c1ccccc1S(=O)(=O)Cc1ccccc1 [Compound 3] | > 100 µM | > 100 µM | 16.4 µM |  |  |  |  | 
O=C(O)c1ccccc1S(=O)(=O)Cc1ccccc1 [Compound 6] | > 100 µM | > 100 µM | 2.3 µM |  |  |  |  | 
COC(=O)c1ccccc1SCc1ccccc1 [Compound 7] | > 100 µM | 75.2 µM | 15 µM |  |  |  |  | 
COC(=O)c1ccccc1S(=O)(=O)Cc1ccccc1 [Compound 9] | > 100 µM | > 100 µM | 11.4 µM |  |  |  |  | 
COC(=O)c1ccccc1SCc1ccc(Cl)cc1 [Compound 10] | > 100 µM | 45.7 µM | 1 µM |  |  |  |  | 
COC(=O)c1ccccc1S(=O)(=O)Cc1ccc(Cl)cc1 [Compound 12] | > 100 µM | 40.1 µM | 21.1 µM |  |  |  |  | 
COC(=O)c1ccccc1SCC(=O)c1ccccc1 [Compound 13] | > 100 µM | > 100 µM | > 100 µM |  |  |  |  | 
COC(=O)c1ccccc1[S+]([O-])CC(=O)c1ccccc1 (centres unmarked) [Compound 14] | > 100 µM | > 100 µM | > 100 µM |  |  |  |  | 
COC(=O)c1ccccc1S(=O)(=O)CC(=O)c1ccccc1 [Compound 15] | > 100 µM | > 100 µM | > 100 µM |  |  |  |  | 
NC(=O)c1ccccc1SCc1ccccc1 [Compound 16] | > 10 µM | 8.22 µM | 0.046 µM | 2.66 µM | medium-potency inhibitor |  |  | 
NC(=O)c1ccccc1S(=O)(=O)Cc1ccccc1 [Compound 18] | > 10 µM | 2.67 µM | > 10 µM | 0.066 µM |  | completely lost the affinity |  | 
CNC(=O)c1ccccc1SCc1ccccc1 [Compound 19] | > 100 µM | 86.3 µM | 19.8 µM |  |  |  |  | 
CNC(=O)c1ccccc1S(=O)(=O)Cc1ccccc1 [Compound 21] | > 100 µM | 68.2 µM | 25.8 µM |  |  |  |  | 
CCCC[S+]([O-])c1ccccc1C(=O)OC (centres unmarked) [Compound 22] | > 100 µM | > 100 µM | > 100 µM |  |  | inactive | inactive | inactive
CCCCC[S+]([O-])c1ccccc1C(=O)OC (centres unmarked) [Compound 23] | > 100 µM | > 100 µM | > 100 µM |  |  | inactive | inactive | inactive
CSc1ccccc1C(N)=O [Compound 24] | > 100 µM | > 100 µM | 6.5 µM | > 100 µM |  |  |  | 
